{"source": "patent US20090029943A1", "about": "“Glucosamine and Derivatives Thereof Useful as TG Inhibitors” (priority 2005, published 2009)", "key": {"[1]": {"target": "T1, purified transglutaminase enzyme (Sigma T5398) (UniProt P08587)", "T1 construct": "purchased Sigma T5398", "T1 sequence (P08587 1-690)": "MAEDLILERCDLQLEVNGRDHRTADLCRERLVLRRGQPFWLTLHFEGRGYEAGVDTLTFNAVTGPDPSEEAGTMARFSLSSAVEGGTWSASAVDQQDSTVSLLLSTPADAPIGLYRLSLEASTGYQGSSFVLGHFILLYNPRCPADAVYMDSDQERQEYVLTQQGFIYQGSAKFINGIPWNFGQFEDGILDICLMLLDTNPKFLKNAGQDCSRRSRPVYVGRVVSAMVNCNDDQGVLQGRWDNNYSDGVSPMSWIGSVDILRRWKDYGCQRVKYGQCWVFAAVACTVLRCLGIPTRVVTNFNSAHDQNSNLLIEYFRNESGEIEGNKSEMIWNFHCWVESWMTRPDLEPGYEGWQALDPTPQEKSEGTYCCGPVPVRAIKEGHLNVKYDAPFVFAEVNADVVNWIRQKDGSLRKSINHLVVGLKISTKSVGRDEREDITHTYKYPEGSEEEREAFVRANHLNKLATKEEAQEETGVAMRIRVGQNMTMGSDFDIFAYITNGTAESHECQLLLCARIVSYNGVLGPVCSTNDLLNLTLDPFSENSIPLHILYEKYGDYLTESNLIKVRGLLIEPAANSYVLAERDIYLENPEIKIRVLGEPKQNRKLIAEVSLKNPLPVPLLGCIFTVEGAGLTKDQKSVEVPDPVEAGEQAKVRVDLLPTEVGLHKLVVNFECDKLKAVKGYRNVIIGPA", "experiment": "In vitro assay for inhibition of transglutaminase activity (14C-putrescine incorporation into succinylated casein)", "format": "biochemical", "conditions": "glucosamine 1, or 100 mM; 37° C., 1 hour; FIG. 2", "experimental": "Consequently, glucosamine and derivatives thereof are transglutaminase inhibitors.\nIn the presence of various concentrations of […], which competes with putrescine, the reaction between [1,4-^14C] putrescine and succinylated casein, catalyzed by transglutaminase, was observed.\nA reaction buffer (0.5 ml) was prepared as follows: 0.1 M triacetate pH 7.5, 1% succinylated casein, 1 mM EDTA, 10 mM CaCl2, 0.5% lubrol PX, 5 mM DTT, 0.15 M NaCl and 0.5 mCi [1,4-^14C] putrescine (Dupont-New England Nuclear; 118 Ci/mole). To this reaction buffer were added 2 μl of a purified transglutaminase enzyme (Sigma T5398), glucosamine and a 50 mM Tris-acetate buffer so as to yield a final volume of 100 μl, having a glucosamine concentration of 1, or 100 mM. Mixing was followed by reaction at 37° C. for 1 hour before termination with 4.5 ml of cold (4° C.) 7.5% TCA. The TCA-precipitates thus formed were filtered through a GF/glass fiber filter, washed with 10 volumes of 5% TCA and dried, followed by measuring transglutaminase-catalyzed ^14C-putrescine-labelled casein with a β-counter.\nThe relative inhibition activities (%) of glucosamine against transglutaminase are depicted in FIG. 2."}, "[2]": {"system": "transglutaminase in SH-SY5Y/TG cells (I-κBα level)", "experiment": "I-κBα Western blotting in SH-SY5Y/TG neuroblastoma cells", "format": "cell-based, human", "conditions": "10 mM glucosamine, 3 hrs, cytosol fraction; FIG. 4A", "experimental": "For use in the transfection of transglutaminase, the human neuroblastoma cell SH-SY5Y was purchased from American Type Culture Collection. SH-SY5Y was cultured in DMEM (Dulbecco's modified Eagle's Medium)/Ham F12 medium (50:50) supplemented with 10% heat-inactivated fetal bovine serum, glutamine, and penicillin/streptomycin. In order to avoid clonal mutation, an Flp-In™ system (Invitrogen, Co) was introduced. SH-SY5Y transformed with a mock vector was used as a […] (Wild) while a full-length transglutaminase gene was cloned in a pcDNA5/FRT vector to prepare SH-SY5Y/TG. Allowing NF-kB to be usually active therein (J. Biol. Chem. 279, 53725-53735, 2004), the strain thus constructed is widely used as an NF-kB activation model based on the overexpression of transglutaminase. […] The inhibitory effects of putative transglutaminase inhibitors were investigated by incubating SH-SY5Y/TG cells in the presence of 10 mM glucosamine (GM), 200 μM cystamine (CTM), and 2 nM iodoacetamide (IAA) for 3 hrs, followed by obtaining cytosol fractions with the aid of a nuclear extraction kit (Sigma) from the cells. As a negative control, a cytosol fraction obtained from a cell culture incubated in the absence of any transglutaminase inhibitor was used (Ct). […]"}, "[3]": {"target": "T2, transglutaminase in LPS-activated microglia cells (Mus musculus, UniProt P21981)", "T2 construct": "In order to detect the intracellular activity of transglutaminase, the cells were incubated for 24 hrs; endogenous in cells", "T2 sequence (P21981 1-686)": "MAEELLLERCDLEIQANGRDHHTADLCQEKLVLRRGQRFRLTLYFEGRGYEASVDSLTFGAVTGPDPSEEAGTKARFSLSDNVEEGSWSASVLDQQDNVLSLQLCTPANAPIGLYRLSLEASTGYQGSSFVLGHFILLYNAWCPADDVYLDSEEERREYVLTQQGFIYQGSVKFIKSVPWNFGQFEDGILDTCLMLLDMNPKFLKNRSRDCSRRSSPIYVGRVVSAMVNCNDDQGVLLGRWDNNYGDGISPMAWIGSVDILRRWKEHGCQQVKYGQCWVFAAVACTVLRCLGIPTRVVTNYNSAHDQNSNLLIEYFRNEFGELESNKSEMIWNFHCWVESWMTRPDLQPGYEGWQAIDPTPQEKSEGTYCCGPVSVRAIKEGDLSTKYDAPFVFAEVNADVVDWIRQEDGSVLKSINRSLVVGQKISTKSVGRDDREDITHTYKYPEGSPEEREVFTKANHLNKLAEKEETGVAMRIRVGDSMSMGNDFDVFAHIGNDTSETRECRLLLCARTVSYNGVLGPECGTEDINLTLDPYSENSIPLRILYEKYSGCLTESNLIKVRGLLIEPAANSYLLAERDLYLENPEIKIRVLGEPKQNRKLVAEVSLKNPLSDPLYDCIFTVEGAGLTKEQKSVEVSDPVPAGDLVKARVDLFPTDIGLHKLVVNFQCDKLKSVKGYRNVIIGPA", "experiment": "Intracellular transglutaminase activity in LPS-activated BV2 microglia (14C-putrescine incorporation)", "format": "cell-based, murine", "conditions": "LPS 24 hrs; glucosamine 1, 10 or 100 mM; FIG. 3B"}, "[4]": {"system": "iNOS (NF-kB-inducible) in LPS-activated BV2 microglia", "experiment": "iNOS Western blotting in LPS-activated BV2 microglia cells", "format": "cell-based, murine", "conditions": "LPS 100 ng/ml 24 hrs; glucosamine 1, 10 or 100 mM; FIG. 3A", "experimental": "The inhibitory effects of glucosamine on transglutaminase were determined by monitoring the activity of the transcriptional factor NF-kB through the measurement of level of NF-kB-inducible iNOS.\nThe cells were maintained in DMEM (Dulbecco's Modified Eagle's medium) (Invitrogen) supplemented with 10% fetal bovine serum and penicillin/streptomycin in a 5% CO2, 37° C. incubator. BV-2 was activated by treatment with LPS (100 ng/ml; Sigma) for 24 hrs.\nIn order to detect the intracellular activity of transglutaminase, the cells were incubated for 24 hrs in a medium supplemented with 4.5 nmoles of ^14C-putrescine (1.11×10^6 dpm)/ml. Cells were grouped according to treatment without or with 1, 10 or 100 mM of glucosamine. Following LPS treatment for 24 hrs, cells in each group were homogenized with a radioimmunoprecipitation assay buffer (1×PBS, 1% Nonidet P-40, 0.5% sodium deoxycholate and 0.1% SDS) containing a protease inhibitor. The homogenates were centrifuged at 100,000×g for 1 hr. and the supernatants were subjected to iNOS Western blotting.\nAfter being separated from a 10˜20% gradient SDS gel using Tricine buffer (Invitrogen), the Western blotting samples were transferred onto polyvinylidene difluoride membrane (Invitrogen). Western blotting was conducted as usual. […]"}}, "note": "“Also recorded” adds a separate entry of the source.", "data": [{"smiles": "N[C@H]1C(O)O[C@H](CO)[C@@H](O)[C@@H]1O", "note": "(stereo partly shown) [glucosamine]", "values": [{"measurement": "activity of transglutaminase (relative inhibition activity)", "setting": "[1]", "result": "poorer activity of transglutaminase; also recorded: inhibited in a glucosamine dose-dependent manner"}, {"measurement": "transglutaminase inhibition shown by level of expression of I-κBα", "setting": "[2]", "result": "identified as a transglutaminase inhibitor"}, {"measurement": "activity of transglutaminase in LPS-activated microglia", "setting": "[3]", "result": "inhibited in a glucosamine dose-dependent manner"}, {"measurement": "level of expression of iNOS", "setting": "[4]", "result": "reduces the level of expression of iNOS"}]}]}
